Test results reported in the supplement of paper PMC9938120.

What was measured:
Assay in all cases: drug sensitivity score (DSS3, normalised partial AUC of % inhibition dose-response) (DSS (score)); higher = more sensitive (stronger inhibition of viability); extreme values may be limits of the assay
FMOC02_1 = patient-derived low-grade serous ovarian cancer cells; details: 72 h; library: FO5A; assay format: 2D, 384-well, CellTiter-Glo
How it was run: (§1)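 Patient-derived ovarian cancer cells (early passage, under 10) were dispensed onto 384-well flat clear-bottom plates pre-plated with compounds at five concentrations covering a 10,000-fold range. Plates were incubated 72 h at 37 °C, 5% CO2, and viability was read with CellTiter-Glo. Data were processed in Breeze. The drug sensitivity score (DSS3) is a partial area under the percent-inhibition dose-response curve, divided by the log of the upper asymptote; higher means more sensitive.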

FMOC02_2 = patient-derived low-grade serous ovarian cancer cells; details: 72 h; library: FO5A; assay format: 2D, 384-well, CellTiter-Glo
How it was run: as §1

FMOC02_3 = patient-derived low-grade serous ovarian cancer cells; details: 72 h; library: FO5A; assay format: 2D, 384-well, CellTiter-Glo
How it was run: as §1

FMOC03 = patient-derived mucinous ovarian cancer cells; details: 72 h; library: FO5A; assay format: 2D, 384-well, CellTiter-Glo
How it was run: as §1

FMOC04 = patient-derived high-grade serous ovarian cancer cells; details: 72 h; library: FO5A; assay format: 2D, 384-well, CellTiter-Glo
How it was run: as §1

FMOC06 = patient-derived mucinous ovarian cancer cells; details: 72 h; library: FO5A; assay format: 2D, 384-well, CellTiter-Glo
How it was run: as §1

FMOC09 = patient-derived high-grade serous ovarian cancer cells; details: 72 h; library: FO5A; assay format: 2D, 384-well, CellTiter-Glo
How it was run: as §1

FMOC11 = patient-derived high-grade serous ovarian cancer cells; details: 72 h; library: FO5A; assay format: 2D, 384-well, CellTiter-Glo
How it was run: as §1

FMOC14 = patient-derived high-grade serous ovarian cancer cells; details: 72 h; library: FO5A; assay format: 2D, 384-well, CellTiter-Glo
How it was run: as §1

FMOC17 = patient-derived low-grade serous ovarian cancer cells; details: 72 h; library: FO5A; assay format: 2D, 384-well, CellTiter-Glo
How it was run: as §1

FMOC22 = patient-derived mucinous ovarian cancer cells; details: 72 h; library: FO5A; assay format: 2D, 384-well, CellTiter-Glo
How it was run: as §1

FMOC24 = patient-derived high-grade serous ovarian cancer cells; details: 72 h; library: FO5A; assay format: 2D, 384-well, CellTiter-Glo
How it was run: as §1

FMOC25_1 = patient-derived low-grade serous ovarian cancer cells; details: 72 h; library: FO4B; assay format: 2D, 384-well, CellTiter-Glo
How it was run: as §1

FMOC25_2 = patient-derived low-grade serous ovarian cancer cells; details: 72 h; library: FO5A; assay format: 2D, 384-well, CellTiter-Glo
How it was run: as §1

FMOC27 = patient-derived low-grade serous ovarian cancer cells; details: 72 h; library: FO5A; assay format: 2D, 384-well, CellTiter-Glo
How it was run: as §1

FMOC28 = patient-derived low-grade serous ovarian cancer cells; details: 72 h; library: FO5A; assay format: 2D, 384-well, CellTiter-Glo
How it was run: as §1

SMILES	drug sensitivity score (FMOC02_1)	drug sensitivity score (FMOC02_2)	drug sensitivity score (FMOC02_3)	drug sensitivity score (FMOC03)	drug sensitivity score (FMOC04)	drug sensitivity score (FMOC06)	drug sensitivity score (FMOC09)	drug sensitivity score (FMOC11)	drug sensitivity score (FMOC14)	drug sensitivity score (FMOC17)	drug sensitivity score (FMOC22)	drug sensitivity score (FMOC24)	drug sensitivity score (FMOC25_1)	drug sensitivity score (FMOC25_2)	drug sensitivity score (FMOC27)	drug sensitivity score (FMOC28)
Cc1ccc(-n2nc(C(C)(C)C)cc2NC(=O)Nc2ccc(OCCN3CCOCC3)c3ccccc23)cc1 [Doramapimod]	0.1	0	0	0	0	0	0.8	2.4	0	0.4	0.3	1.85	0.8	0.1	0.1	7.1
O=C(Nc1cc(Cl)cc2c1[nH]c1cnccc12)c1cccnc1 [PS-1145]	2.2	4.6	7.2	0.1	0	0.8	1.1	0.8	0	2.3	0	2.75	3.2	2.7	0.7	3
O=c1[nH]cc(F)c(=O)[nH]1 [Fluorouracil]	2.3	1.8	3.6	0	2.65	0	0	0	0	1	2.2	0.1	3.1	4.3	0	1.2
CNC(=O)c1ccccc1Sc1ccc2c(/C=C/c3ccccn3)n[nH]c2c1 [Axitinib]	1.9	0.5	0.1	2.1	0.45	0	0	0.1	0	0.3	1.2	2.15	0	0	0	0
CCNC(=O)CCC/C=C\C[C@@H]1[C@@H](/C=C/[C@@H](O)CCc2ccccc2)[C@H](O)C[C@@H]1O [Bimatoprost]	0	0	0	0	0	0	0	0	0	0	0	0	0	0	0	0
O=C(c1cccc(Cl)c1F)N1CCN(Cc2cccc(Nc3nccs3)n2)CC1 [MK-8745]	7.1	6.1	5.7	1.3	1.3	0	0.2	4	0.2	2.1	1.8	0.2	0	4	0	5.8
CCN(CC)CCN(Cc1ccc(-c2ccc(C(F)(F)F)cc2)cc1)C(=O)Cn1c(SCc2ccc(F)cc2)nc(=O)c2c1CCC2 [Darapladib]	0	0	1.6	0	0.25	0	0	0.1	1.3	0	0	4.2	0.1	0	0	1.2
CCCS(=O)(=O)Nc1ccc(F)c(C(=O)c2c[nH]c3ncc(-c4ccc(Cl)cc4)cc23)c1F [Vemurafenib]	3.3	1.6	1.8	3	0	0.3	0	1.6	1.3	1	2.5	1.65	1.7	1.6	0	2.6
CCC/C=C/C=C/C(=O)O[C@H]1/C(=C/C(=O)OC)C[C@H]2C[C@H]([C@@H](C)O)OC(=O)C[C@H](O)C[C@@H]3C[C@H](OC(C)=O)C(C)(C)[C@](O)(C[C@@H]4C/C(=C/C(=O)OC)C[C@H](/C=C/C(C)(C)[C@]1(O)O2)O4)O3 [Bryostatin 1]	6.7	1.5	4.1	0	0.7	6.8	0.6	2.4	0	0	2.6	3.45	6.6	7.1	0.2	0.7
COc1cc2/c(=N/c3ccc(Br)cc3F)nc[nH]c2cc1OCC1CCN(C)CC1 [Vandetanib]	5.6	6.3	5.1	2.7	0.55	0.7	3.1	3.1	0.1	6.2	0	1.7	1.4	4.1	4.8	2.1
C[C@@H]1C[C@H]2[C@@H]3CCC4=CC(=O)C=C[C@]4(C)[C@@]3(F)[C@@H](O)C[C@]2(C)[C@@]1(O)C(=O)CO [Dexamethasone]	0	0	0	0	0	0	0	0	0	1.3	0	0	0	0	0	0
C=CCN(/C=C1/C(=O)O[C@H](COC)[C@@]2(C)C1=C(O)C(=O)C1=C2[C@H](OC(C)=O)C[C@]2(C)C(=O)CC[C@@H]12)CC=C [Sonolisib]	0	0.3	0.4	0	0	0	0	0	0	0	0	0.25	0	0	0	0.4
Cc1cccc(CC(=O)N2CCc3c2ccc(-c2cn(C)c4ncnc(N)c24)c3F)n1	0	0	0	0	0	0	0	0	0	0	0.2	0	0.2	1.6	0	0
O=C(c1ccc(C(=O)N2CCC(N3CCCC3)CC2)c(Nc2ccccc2)c1)N1CCC(N2CCCC2)CC1 [UNC1215]	0	0.3	0	0	0	0	0	0	0	0	0	0	0	0	0	0
CCCOc1ccn2c(C(C)=O)cc(-c3ccccc3S(C)(=O)=O)c2c1 [GSK2801]	0	0.1	0	0	0	0	0	0	0	0	0	0	0	1.5	0	4.9
CCC(C)n1ncn(-c2ccc(N3CCN(c4ccc(OCC5COC(Cn6cncn6)(c6ccc(Cl)cc6Cl)O5)cc4)CC3)cc2)c1=O (stereo not drawn) [Itraconazole]	5.3	3	6.6	4.5	0.1	0.7	0.8	1.2	1.3	4.8	0.2	4.9	4	4.6	0.6	4.4
CC1(C)CNc2cc(NC(=O)c3cccnc3NCc3ccncc3)ccc21 [Motesanib]	0	0.5	2.9	0	0	1.1	0	0.2	0	0	0	0.15	1	0.1	0.6	2.4
COc1ccc(COc2cc3oc(=O)c4cc(C(C)O)ccc4c3cc2OC)cc1 (stereo not drawn) [Palomid-529]	0	2.2	0	0	0	0	0.4	0.4	0	0	0	0	0	0.1	0	1.4
CN(C)C(=O)c1ccc(S(=O)(=O)c2ccc(NC(=O)[C@@](C)(O)C(F)(F)F)c(Cl)c2)cc1 [AZD7545]	0	0	0	0	0	0	0	0	0.4	0	0.8	0	0	0	0	2.4
O=C(O)CC1CC(c2ccccc2)=NO1 (stereo not drawn) [VGX-1027]	0	0	0	0	0	0	0	0	0	0	0	0	0	0	0	0
COc1ccc(Cn2ccc3ccc(C(=O)NO)cc32)cc1	1	3.4	1.8	1.1	0	0.2	1.1	0.6	1.1	1.4	0.4	0.4	0.8	2.5	0.2	4.9
O=C(O)CCCCC(CCSCc1ccccc1)SCc1ccccc1 (stereo not drawn) [CPI-613]	0	0	0	0	0	0	0	0	0	2.5	0	0	0	0	0	2.8
CC1(C)NC(=O)N(c2ccc([N+](=O)[O-])c(C(F)(F)F)c2)C1=O [Nilutamide]	0	0	0	0	0	0	0	0	0	0.5	0	0.65	0	0	0.1	0
